# Source: US6663881B2 (priority 1993, dated 2003)
# Like-named read-outs stand apart in the source and are kept apart here.
# How the values were obtained:
# [1] = test system: Vascular smooth muscle cells (BO54); assay: Scratch-migration assay; assay type: cell-based, baboon; design: key to Migration Grade in an Undisturbed Region of the Well / Migration Grade in the Cleared Area of the Well: −=no migration; +1=minimal; +2=mild; +3=moderate; +4=marked (maximum density; limit of cell contact inhibition) migration
# Protocol: Scratch assays to determine the extent of smooth muscle cell migration inhibition by cytochalasin B were performed in accordance with the following protocol:
# Vascular smooth muscle cells (BO54) were derived from explants of baboon aortic smooth muscle, as described in Example 10. The cells were grown in flat bottom, six well tissue culture plates, which hold about 5 ml of medium. The vascular smooth muscle cells were plated at 200,000 cells/well and placed at 37° C. in a humidified 5% CO2 incubator for 18 hours. The wells were then scratched with a sterile portion of a single edge razor blade that was held by clamp or pliers and was brought aseptically into contact with the bottom of the well at a 90° angle. The cells from a small area along the scratch were removed by a sterile cotton tipped applicator while the blade was in contact with the bottom of the well. After incubation, the presence of cells in the “scratched” area is indicative of cell migration across the scratch line.
# Briefly, a stock solution of cytochalasin B (Sigma Chemical Co.) in dimethyl sulfoxide (DMSO) at 1 mg/ml was prepared. Test dilutions of cytochalasin B or control medium were added. Each experiment included two sets of plates:
# A set: Test agent exposure for 1, 3, 6, 8 and 10 days only; and
# B set: Test agent exposure for 1, 3, 6, 8 and 10 days, followed by a seven day recovery time with control medium.
# Both sets of plates were fixed (10% formalin in PBS) and stained (0.02% crystal violet) at the end of the timed exposures. Test concentrations for cytochalasin B were 1, 0.1 and 0.01 μg/ml, and a negative medium control was included. Fresh medium and drug were supplied 3 times per week.
# In this Table, “M” indicates Migration Grade, wherein −=no migration; +1=minimal; +2=mild; +3=moderate; and +4=marked (maximum density; limit of cell contact inhibition) migration of vascular smooth muscle cells into the cleared area adjacent to the scratch. In this Table, “T” denotes a morphological Toxicity Grade, wherein −=no toxicity; +1=minimal; +2=mild; +3=moderate; and +4=marked toxicity. The migration results are expressed as “Grade in the Cleared Area of the Well/Grade in an Undisturbed Region of the Well.” The toxicity values represent a grade for all cells in each well.
# [2] = Tissue distribution of cytochalasin B after intravenous administration (TLC); assay type: in vivo, mice
# Protocol: Cytochalasin B was also administered intravenously to mice at 3.5 mg/kg (in methanol or Tween 20/carboxymethyl cellulose). Mice were sacrificed at 2 minutes, 15 minutes, 30 minutes, 3 hours and 12 hours after cytochalasin B administration and tissue extracts analyzed for cytochalasin by TLC. The maximal recovery of cytochalasin B from tissue extracts was 32%.
# [3] = test system: balloon traumatized rabbit carotid artery; assay type: in vivo
# [4] = test system: balloon traumatized pig femoral artery; assay: Sustained release adventitial wraps on balloon traumatized pig femoral artery (Table 16, Group 12); assay type: in vivo; settings: Group 12: 30% wt/wt loaded silicone wraps
# Excerpt: To determine the efficacy of the local, sustained release dosage forms of cytochalasin B or taxol to inhibit restenosis, cytochalasin B or taxol in a supporting structure, e.g., a “wrap,” was applied to the adventitial tissue surrounding a balloon traumatized rabbit carotid artery (Groups 1-11) or a balloon traumatized pig femoral artery (Group 12) (Table 16).
# While there was intimal proliferation in the arteries 3 weeks later, the proliferation was still less than the proliferation observed for the controls.
# [5] = test system: balloon traumatized left carotid artery
# [6] = 7-day Recovery Post Exposure, Day 1, 0.01 μg/mL
# [7] = 7-day Recovery Post Exposure, Day 1, 0.1 μg/mL
# [8] = 7-day Recovery Post Exposure, Day 1, 1.0 μg/mL
# [9] = 7-day Recovery Post Exposure, Day 3, 0.01 μg/mL
# [10] = 7-day Recovery Post Exposure, Day 3, 0.1 μg/mL
# [11] = 7-day Recovery Post Exposure, Day 6, 0.1 μg/mL
# [12] = 7-day Recovery Post Exposure, Day 6, 1.0 μg/mL
# [13] = 7-day Recovery Post Exposure, Day 8, 0.01 μg/mL
# [14] = 7-day Recovery Post Exposure, Day 8, 0.1 μg/mL
# [15] = 7-day Recovery Post Exposure, Day 8, 1.0 μg/mL
# [16] = 7-day Recovery Post Exposure, Day 10, 0.01 μg/mL
# [17] = 7-day Recovery Post Exposure, Day 10, 0.1 μg/mL
# [18] = 7-day Recovery Post Exposure, Day 10, 1.0 μg/mL
# [19] = Continuous Exposure, Day 1, 0.01 μg/mL
# [20] = Continuous Exposure, Day 1, 0.1 μg/mL
# [21] = Continuous Exposure, Day 6, 0.01 μg/mL
# [22] = Continuous Exposure, Day 6, 0.1 μg/mL
# [23] = Continuous Exposure, Day 8, 0.01 μg/mL
# [24] = Continuous Exposure, Day 8, 0.1 μg/mL
# [25] = Continuous Exposure, Day 10, 0.01 μg/mL
# [26] = Continuous Exposure, Day 10, 0.1 μg/mL
compound,measurement,setting,value
C=C1[C@@H](C)[C@H]2[C@H](Cc3ccccc3)NC(=O)[C@]23OC(=O)/C=C/[C@H](O)CCC[C@@H](C)C/C=C/[C@H]3[C@@H]1O [cytochalasin B],morphological toxicity grade,"[1]; 0.1 μg/ml, continuous exposure",−3 to +1
same,Migration Grade in an Undisturbed Region of the Well,[1]; [6],+4
same,Migration Grade in the Cleared Area of the Well,[1]; [6],+3
same,Migration Grade in an Undisturbed Region of the Well,[1]; [7],+4
same,Migration Grade in the Cleared Area of the Well,[1]; [7],+3
same,Migration Grade in an Undisturbed Region of the Well,[1]; [8],+3
same,Migration Grade in the Cleared Area of the Well,[1]; [8],+2
same,Migration Grade in an Undisturbed Region of the Well,[1]; [9],+4
same,Migration Grade in the Cleared Area of the Well,[1]; [9],+3
same,Migration Grade in an Undisturbed Region of the Well,[1]; [10],+4
same,Migration Grade in the Cleared Area of the Well,[1]; [10],+3
same,Migration Grade in an Undisturbed Region of the Well,"[1]; 7-day Recovery Post Exposure, Day 6, 0.01 μg/mL",+4/+4
same,Migration Grade in an Undisturbed Region of the Well,[1]; [11],+4
same,Migration Grade in the Cleared Area of the Well,[1]; [11],+3
same,Migration Grade in an Undisturbed Region of the Well,[1]; [12],+3
same,Migration Grade in the Cleared Area of the Well,[1]; [12],+2
same,Migration Grade in an Undisturbed Region of the Well,[1]; [13],+4/+4
same,Migration Grade in the Cleared Area of the Well,[1]; [13],+4/+4
same,Migration Grade in an Undisturbed Region of the Well,[1]; [14],+4
same,Migration Grade in the Cleared Area of the Well,[1]; [14],+3
same,Migration Grade in an Undisturbed Region of the Well,[1]; [15],+3
same,Migration Grade in the Cleared Area of the Well,[1]; [15],+2
same,Migration Grade in an Undisturbed Region of the Well,[1]; [16],+4/+4
same,Migration Grade in the Cleared Area of the Well,[1]; [16],+4/+4
same,Migration Grade in an Undisturbed Region of the Well,[1]; [17],+4/+4
same,Migration Grade in the Cleared Area of the Well,[1]; [17],+4/+4
same,Migration Grade in an Undisturbed Region of the Well,[1]; [18],+3
same,Migration Grade in the Cleared Area of the Well,[1]; [18],+2
same,Migration Grade in an Undisturbed Region of the Well,[1]; [19],+3
same,Migration Grade in the Cleared Area of the Well,[1]; [19],+1
same,Migration Grade in an Undisturbed Region of the Well,[1]; [20],+3
same,Migration Grade in the Cleared Area of the Well,[1]; [20],+1
same,Migration Grade in an Undisturbed Region of the Well,"[1]; Continuous Exposure, Day 1, 1.0 μg/mL",+2
same,Migration Grade in an Undisturbed Region of the Well,"[1]; Continuous Exposure, Day 3, 0.1 μg/mL",+4
same,Migration Grade in an Undisturbed Region of the Well,[1]; [21],+4
same,Migration Grade in the Cleared Area of the Well,[1]; [21],+3
same,Migration Grade in an Undisturbed Region of the Well,[1]; [22],+4
same,Migration Grade in the Cleared Area of the Well,[1]; [22],+2
same,Migration Grade in an Undisturbed Region of the Well,"[1]; Continuous Exposure, Day 6, 1.0 μg/mL",+2
same,Migration Grade in an Undisturbed Region of the Well,[1]; [23],+4
same,Migration Grade in the Cleared Area of the Well,[1]; [23],+3
same,Migration Grade in an Undisturbed Region of the Well,[1]; [24],+4
same,Migration Grade in the Cleared Area of the Well,[1]; [24],+2
same,Migration Grade in an Undisturbed Region of the Well,"[1]; Continuous Exposure, Day 8, 1.0 μg/mL",+2
same,Migration Grade in an Undisturbed Region of the Well,[1]; [25],+4
same,Migration Grade in the Cleared Area of the Well,[1]; [25],+3
same,Migration Grade in an Undisturbed Region of the Well,[1]; [26],+4
same,Migration Grade in the Cleared Area of the Well,[1]; [26],+2
same,Migration Grade in an Undisturbed Region of the Well,"[1]; Continuous Exposure, Day 10, 1.0 μg/mL",+2
same,acute toxicity,[2]; 3.5 mg/kg intravenously,no acute toxicity
same,maximal recovery from tissue extracts,[2]; 3.5 mg/kg intravenously,32%
same,tissue localization,[2]; 3.5 mg/kg intravenously,localized to the lung and the injection site
same,levels in tissues,[2]; 12 hours after administration,very low levels
same,intimal proliferation,"[3]; Group 1, 2 weeks",minimal intimal and adventital proliferation
same,intimal proliferation,"[3]; Group 1, three weeks",no intimal proliferation
same,intimal proliferation,"[3]; Group 1: 20 mg in 1 g bovine collagen gel in collagen mesh wrap, 1 week",no intimal or adventital proliferation
same,intimal proliferation,"[3]; Group 2, 3 weeks","moderate, irregular intimal proliferation"
same,intimal proliferation,"[3]; Group 2, two weeks",complete inhibition of intimal proliferation
same,intimal proliferation,"[3]; Group 3, three weeks",moderate amount of intimal hyperplasia
same,intimal proliferation,"[3]; Group 3, two weeks","mild, irregular intimal proliferation"
same,intimal proliferation,"[3]; Group 3: 8 mg in 100 mg pluronic gel on collagen mesh wrap, one week",mild intimal proliferation
same,intimal proliferation,"[3]; Group 4, three weeks",minimal to no intimal proliferation
same,intimal proliferation,"[3]; Group 4, two weeks",minimal intimal proliferation
same,intimal proliferation,"[3]; Group 7a, three weeks",mild irregular intimal proliferation
same,intimal proliferation,"[3]; Group 7a: 10% wt/wt, one week",no intimal proliferation
same,re-endothelization,"[3]; Group 8a, animal 1254",approximately 60%
same,intimal proliferation,"[3]; Group 8a, animal 1255",mild to moderate intimal proliferation
same,intimal proliferation,"[3]; Group 8a, animal 1256",moderate intimal proliferation
same,intimal proliferation,"[3]; Group 8a: 10% wrap 2 weeks, removed, 2 weeks later, animal 1254",none to mild
same,intimal proliferation,"[3]; Group 10 (1% wrap, 2 weeks after removal), animal 1304",moderate initmal proliferation
same,re-endothelization,"[3]; Group 10, animal 1304",100%
same,intimal proliferation,"[3]; Group 11 (1% wrap, four weeks after removal), animal 1307",moderate initmal proliferation
same,intimal proliferation,"[3]; Group 11, animal 1308",moderate intimal proliferation
same,re-endothelization,"[3]; Group 11, animal 1308",100%
same,intimal proliferation,"[3]; Group 11, animal 1309",marked intimal proliferation
same,qualitative difference between test and control animals,"[3]; Groups 10 and 11: 1% wt/wt silicone wrap 2 weeks, removed, evaluated 2 or 4 weeks later",No significant difference
same,intimal proliferation,[4],significantly inhibited intimal proliferation for the first two weeks
same,morphometry vs untreated controls,[5]; 14 days,no statistical difference from the controls
same,post-surgical weight gain,[5]; periadventitial crystals,delay in post-surgical weight gain
same,toxicity at the surgical site,[5]; periadventitial crystals,significant toxicity at the surgical site
